Values of other authors in patent publication US11717525B2, “Transdermal and/or topical delivery system comprising clobazam” (Alpha to Omega Pharmaceutical Consultants, Inc., priority 2015, dated 2023).

Columns and labels:
[1] = 25° C., practically insoluble
[2] = lipophilic in nature
[3] = oral administration

SMILES: CN1C(=O)CC(=O)N(c2ccccc2)c2cc(Cl)ccc21 [Clobazam]
- solubility in water [1]: 70 microgram/ml (μg/ml)
- Log P [2]: around 2.1
- absorbed when taken orally [3]: 87%
